# Source: patent publication US9096591B2, “Tetracyclic compounds” (Medivation Technologies, Inc., priority 2007, dated 2015)
# How the values were obtained:
# [1] = target: T1, human recombinant adrenergic α2B receptor (Homo sapiens, UniProt P18089); experiment: Adrenergic α2B radioligand binding ([3H]Rauwolscine); parameters: Inhibition of ligand binding, Adren. alpha2B: concentration or dose not given beside the values; details: percent inhibition of specific binding
# T1 construct: expressed in transfected cells; host or cells: CHO-K1 cells
# T1 sequence (P18089 1-450): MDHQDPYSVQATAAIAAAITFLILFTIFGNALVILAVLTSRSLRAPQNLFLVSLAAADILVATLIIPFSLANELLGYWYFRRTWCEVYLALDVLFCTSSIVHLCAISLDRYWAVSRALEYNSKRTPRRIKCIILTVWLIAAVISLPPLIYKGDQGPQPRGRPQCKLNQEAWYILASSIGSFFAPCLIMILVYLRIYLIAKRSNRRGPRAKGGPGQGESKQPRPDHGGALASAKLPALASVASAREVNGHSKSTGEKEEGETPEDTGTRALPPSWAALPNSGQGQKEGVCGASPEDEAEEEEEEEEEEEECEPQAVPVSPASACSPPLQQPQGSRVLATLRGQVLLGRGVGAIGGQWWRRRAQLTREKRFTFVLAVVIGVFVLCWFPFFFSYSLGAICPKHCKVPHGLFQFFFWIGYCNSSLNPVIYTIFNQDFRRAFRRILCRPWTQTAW
# How it was run: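 Membranes from CHO-K1 cells expressing the receptor, in 50 mM Tris-HCl pH 7.4 with 12.5 mM MgCl2, 1 mM EDTA, 0.2% BSA, incubated with compounds and 2.5 nM [3H]Rauwolscine for 60 minutes at 25 °C.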
# [2] = target: T2, human recombinant histamine H1 receptor (Homo sapiens, UniProt P35367); experiment: Histamine H1 radioligand binding ([3H]Pyrilamine); details: percent inhibition of specific binding; screened at 1 μM; read-out: Inhibition of ligand binding, Hist. H1
# T2 construct: expressed in transfected cells; host or cells: CHO cells
# T2 sequence (P35367 whole entry): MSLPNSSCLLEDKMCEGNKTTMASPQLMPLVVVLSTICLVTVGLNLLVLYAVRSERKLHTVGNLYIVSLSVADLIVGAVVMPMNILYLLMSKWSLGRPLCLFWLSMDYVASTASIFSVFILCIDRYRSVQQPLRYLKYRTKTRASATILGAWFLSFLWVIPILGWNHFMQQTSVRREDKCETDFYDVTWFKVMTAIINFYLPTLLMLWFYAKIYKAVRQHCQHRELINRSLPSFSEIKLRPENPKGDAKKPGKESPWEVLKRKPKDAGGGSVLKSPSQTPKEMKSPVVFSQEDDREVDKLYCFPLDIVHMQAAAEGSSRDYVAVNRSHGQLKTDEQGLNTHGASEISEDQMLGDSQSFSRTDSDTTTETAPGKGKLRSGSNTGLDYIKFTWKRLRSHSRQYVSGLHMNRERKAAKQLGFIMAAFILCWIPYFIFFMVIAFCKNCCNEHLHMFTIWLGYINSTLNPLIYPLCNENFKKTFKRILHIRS
# How it was run: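 Receptor expressed in CHO cells, assayed in 50 mM Tris-HCl pH 7.4 with 2 mM MgCl2, 100 mM NaCl, 250 mM sucrose. Compounds tested at 1 μM in 1% DMSO; non-specific binding set with 1 μM pyrilamine. Filter-bound radioactivity counted; values are percent inhibition of specific binding.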
# [3] = target: T3, human recombinant dopamine D2L receptor (Homo sapiens, UniProt P14416); experiment: Dopamine D2L radioligand binding ([3H]Spiperone); details: percent inhibition of specific binding
# T3 construct: expressed in transfected cells; host or cells: CHO cells
# T3 sequence (P14416 whole entry): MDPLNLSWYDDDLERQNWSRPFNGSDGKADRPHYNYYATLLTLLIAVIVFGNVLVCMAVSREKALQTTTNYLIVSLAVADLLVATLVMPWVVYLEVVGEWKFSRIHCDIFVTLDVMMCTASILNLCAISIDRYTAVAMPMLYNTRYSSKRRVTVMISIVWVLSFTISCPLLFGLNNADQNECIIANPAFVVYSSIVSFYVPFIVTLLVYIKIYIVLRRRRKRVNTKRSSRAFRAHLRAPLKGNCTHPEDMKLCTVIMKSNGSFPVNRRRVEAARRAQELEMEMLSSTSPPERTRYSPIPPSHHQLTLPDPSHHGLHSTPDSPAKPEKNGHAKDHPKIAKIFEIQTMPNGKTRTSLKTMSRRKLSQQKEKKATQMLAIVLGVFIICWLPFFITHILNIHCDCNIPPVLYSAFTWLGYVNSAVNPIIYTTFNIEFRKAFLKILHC
# Experimental: Non-specific binding was estimated in the presence of 10 μM Haloperidol. Receptor proteins were filtered and washed, the filters were then counted to determine [^3H]Spiperone specifically bound. […] Biochemical assay results are presented as the percent inhibition of specific binding in Table 6.
# [4] = target: T4, human recombinant serotonin (5-Hydroxytryptamine) 5-HT2A receptor (Homo sapiens, UniProt P28223); experiment: Serotonin 5-HT2A radioligand binding ([3H]Ketanserin); details: percent inhibition of specific binding
# T4 construct: expressed in transfected cells; host or cells: CHO-K1 cells
# T4 sequence (P28223 whole entry): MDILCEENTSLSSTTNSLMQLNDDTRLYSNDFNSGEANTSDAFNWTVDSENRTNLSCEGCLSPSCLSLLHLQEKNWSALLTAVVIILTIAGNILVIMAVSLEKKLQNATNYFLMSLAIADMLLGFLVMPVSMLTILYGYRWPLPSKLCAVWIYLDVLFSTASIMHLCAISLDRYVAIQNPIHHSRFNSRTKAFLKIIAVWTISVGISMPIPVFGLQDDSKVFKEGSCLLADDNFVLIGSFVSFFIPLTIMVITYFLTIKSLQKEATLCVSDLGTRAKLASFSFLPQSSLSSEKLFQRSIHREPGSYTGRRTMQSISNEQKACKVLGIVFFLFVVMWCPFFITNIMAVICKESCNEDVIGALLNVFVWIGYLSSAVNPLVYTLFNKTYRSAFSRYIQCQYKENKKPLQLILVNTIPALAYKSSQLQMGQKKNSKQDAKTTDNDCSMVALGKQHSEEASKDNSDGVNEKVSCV
# Experimental: (§1) Compounds of the invention were incubated with 0.5 nM [^3H]Ketanserin for 60 minutes at 25° C. Non-specific binding was estimated in the presence of 1 μM Mianserin. Receptor proteins were filtered and washed, the filters were then counted to determine [^3H]Ketanserin specifically bound. […] Biochemical assay results are presented as the percent inhibition of specific binding in Table 6.
# [5] = target: T5, human recombinant histamine H2 receptor (Homo sapiens, UniProt P25021); experiment: Histamine H2 radioligand binding ([125I]Aminopotentidine); details: percent inhibition of specific binding; screened at 1 μM; read-out: Inhibition of ligand binding, Hist. H2
# T5 construct: expressed in transfected cells; host or cells: CHO-K1 cells
# T5 sequence (P25021 whole entry): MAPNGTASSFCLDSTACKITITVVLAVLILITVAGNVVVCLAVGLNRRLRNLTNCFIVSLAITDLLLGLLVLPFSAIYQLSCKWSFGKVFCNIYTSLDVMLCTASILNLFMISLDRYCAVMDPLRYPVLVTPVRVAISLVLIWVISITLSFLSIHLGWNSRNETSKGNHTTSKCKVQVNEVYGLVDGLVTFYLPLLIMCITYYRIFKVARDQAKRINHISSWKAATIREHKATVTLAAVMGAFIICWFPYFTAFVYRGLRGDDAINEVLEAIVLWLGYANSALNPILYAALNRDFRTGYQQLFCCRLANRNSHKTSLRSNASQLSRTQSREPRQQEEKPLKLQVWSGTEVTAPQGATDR
# How it was run: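 Test compounds were assessed for their ability to displace radioligand from the human recombinant histamine H2 receptor. Non-specific binding was determined in the presence of 3 μM Tiotidine, and results were expressed as percent inhibition of specific binding, with 1% DMSO serving as the vehicle.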
# [6] = target: T6, human recombinant serotonin (5-Hydroxytryptamine) 5-HT2C receptor (Homo sapiens, UniProt P28335); experiment: Serotonin 5-HT2C radioligand binding ([3H]Mesulergine); parameters: Inhibition of ligand binding, Ser. 5-HT2C: concentration or dose not given beside the values; details: percent inhibition of specific binding
# T6 construct: expressed in transfected cells; host or cells: CHO-K1 cells
# T6 sequence (P28335 33-458): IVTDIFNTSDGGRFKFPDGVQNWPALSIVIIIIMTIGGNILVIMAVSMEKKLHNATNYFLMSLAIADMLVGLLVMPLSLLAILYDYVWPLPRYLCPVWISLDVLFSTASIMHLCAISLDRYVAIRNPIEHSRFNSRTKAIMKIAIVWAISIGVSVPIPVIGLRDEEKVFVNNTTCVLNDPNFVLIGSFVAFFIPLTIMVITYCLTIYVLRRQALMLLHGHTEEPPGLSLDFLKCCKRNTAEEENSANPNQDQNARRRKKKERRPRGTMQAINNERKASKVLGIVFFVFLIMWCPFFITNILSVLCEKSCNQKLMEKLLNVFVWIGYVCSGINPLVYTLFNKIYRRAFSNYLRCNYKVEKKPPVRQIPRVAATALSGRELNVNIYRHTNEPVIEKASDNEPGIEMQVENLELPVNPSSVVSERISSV
# Experimental: as §1, with “1” for “0.5”, “[^3H]Mesulergine” for “[^3H]Ketanserin”
SMILES,"Inhibition of ligand binding, Adren. alpha2B [1] [%]",inhibition at 1 µM [2] [%],"Inhibition of ligand binding, Dop. D2L [3] [%]","Inhibition of ligand binding, Ser. 5-HT2A [4] [%]",inhibition at 1 µM [5] [%],"Inhibition of ligand binding, Ser. 5-HT2C [6] [%]"
"Cc1cnc(CCn2c3c(c4cc(Cl)ccc42)CN(C)CC3)cn1 [Compound 363, 8-Chloro-2-methyl-5-[2-(5-methyl-pyrazin-2-yl)-ethyl]-2,3,4,5-tetrahydro-1H-pyrido[4,3-b]indole]",104,95,24,75,31,66
"CCc1ccc2c(c1)c1c(n2CCc2cnc(C)cn2)CCN(C)C1 [Compound 364, 8-Ethyl-2-methyl-5-[2-(5-methyl-pyrazin-2-yl)-ethyl]-2,3,4,5-tetrahydro-1H-pyrido[4,3-b]indole]",109,87,29,59,13,81
"Cc1cnc(CCn2c3c(c4cc(C(C)C)ccc42)CN(C)CC3)cn1 [Compound 369, 8-Isopropyl-2-methyl-5-[2-(5-methyl-pyrazin-2-yl)-ethyl]-2,3,4,5-tetrahydro-1H-pyrido[4,3-b]indole]",105,39,1,10,6,57
"Cc1ncc(CCn2c3c(c4cc(C(C)C)ccc42)CN(C)CC3)cn1 [Compound 370, 8-Isopropyl-2-methyl-5-[2-(2-methyl-pyrimidin-5-yl)-ethyl]-2,3,4,5-tetrahydro-1H-pyrido[4,3-b]indole]",87,85,10,15,18,40
"CCc1ccc(CCn2c3c(c4cc(Cl)ccc42)CN(C)CC3)cn1 [Compound 371, 8-Chloro-5-[2-(6-ethyl-pyridin-3-yl)-ethyl]-2-methyl-2,3,4,5-tetrahydro-1H-pyrido[4,3-b]indole]",98,99,40,93,74,87
"CC(C)c1ccc(CCn2c3c(c4cc(Cl)ccc42)CN(C)CC3)cn1 [Compound 372, 8-Chloro-5-[2-(6-isopropyl-pyridin-3-yl)-ethyl]-2-methyl-2,3,4,5-tetrahydro-1H-pyrido[4,3-b]indole]",110,101,44,96,82,77
"Cc1cccc2c3c(n(CCc4ccc(C(F)(F)F)nc4)c12)CCN(C)C3 [Compound 380, 5-(2-(6-(trifluoromethyl)pyridin-3-yl)ethyl)-2,3,4,5-tetrahydro-2,6-dimethyl-1H-pyrido[4,3-b]indole]",103,68,−5,88,69,70
"Cc1ccc2c(c1)c1c(n2CCc2cncnc2)CCN(C)C1 [Compound 387, 2,8-Dimethyl-5-(2-pyrimidin-5-yl-ethyl)-2,3,4,5-tetrahydro-1H-pyrido[4,3-b]indole]",95,97,1,54,11,76
"Cc1ccc(CCn2c3c(c4cc(C(C)C)ccc42)CN(C)CC3)cn1 [Compound 392, 8-Isopropyl-2-methyl-5-[2-(6-methyl-pyridin-3-yl)-ethyl]-2,3,4,5-tetrahydro-1H-pyrido[4,3-b]indole]",109,98,24,53,58,82
"Cc1ccc2c(c1)c1c(n2CC(=O)N2CCCCC2)CCN(C)C1 [Compound 395, 2-(1,2,3,4-tetrahydro-2,8-dimethylpyrido[4,3-b]indol-5-yl)-1-(piperidin-1-yl)ethanone]",2,20,2,16,4,50
"Cc1ccc2c(c1)c1c(n2CC(=O)N2Cc3ccccc3C2)CCN(C)C1 [Compound 397, 2-(1,2,3,4-tetrahydro-2,8-dimethylpyrido[4,3-b]indol-5-yl)-1-(isoindolin-2-yl)ethanone]",40,77,5,50,32,44
"Cc1ccc2c(c1)c1c(n2CC(=O)N2CCc3ccccc3C2)CCN(C)C1 [Compound 398, 2-(1,2,3,4-tetrahydro-2,8-dimethylpyrido[4,3-b]indol-5-yl)-1-(3,4-dihydroisoquinolin-2(1H)-yl)ethanone]",50,76,8,85,24,69
"Cc1ccc2c(c1)c1c(n2CC(=O)N2CCSCC2)CCN(C)C1 [Compound 399, 2-(1,2,3,4-tetrahydro-2,8-dimethylpyrido[4,3-b]indol-5-yl)-1-thiomorpholinoethanone]",11,42,0,8,10,73
"Cc1ccc2c(c1)c1c(n2CC(=O)N2CCCC(C)C2)CCN(C)C1 (stereo not drawn) [Compound 401, 2-(1,2,3,4-tetrahydro-2,8-dimethylpyrido[4,3-b]indol-5-yl)-1-(3-methylpiperidin-1-yl)ethanone]",3,36,−12,17,14,39
